Assay results taken from patent publication US5789379A, “Glucagon-like peptide-2 analogs” (Allelix Biopharmaceutical Inc., priority 1996, dated 1998).
Blank lines part the entries; values can stand above or below the compound they belong to. Square brackets hold non-standard residues; d marks the D form. Ends that are not written are not given here. Peptide text beside a SMILES is read from it.

Tests used:
[1] = tested on: rat liver and brain tissues; conditions: cited from earlier work
adenylate cyclase [2] = conditions: liver plasma membranes; cited from earlier work
adenylate cyclase [3] = conditions: rat hypothalamic and pituitary tissue; cited from earlier work
human placental DPP-IV = molecular target: T1, human placental DPP-IV (Homo sapiens, UniProt P27487); assay: Assay for resistance to dipeptidyl peptidase IV; type: in vitro ADME; conditions: for cleavage products detected: after 24 hours incubation with DPP-IV at 37° C., RP-HPLC
T1 construct: a solution of human placental DPP-IV (Calbiochem, La Jolla, Calif., cat. # 317624); purchased Calbiochem, La Jolla, Calif; 317624; host or cells: human placenta (tissue-derived)
T1 sequence (P27487 whole entry): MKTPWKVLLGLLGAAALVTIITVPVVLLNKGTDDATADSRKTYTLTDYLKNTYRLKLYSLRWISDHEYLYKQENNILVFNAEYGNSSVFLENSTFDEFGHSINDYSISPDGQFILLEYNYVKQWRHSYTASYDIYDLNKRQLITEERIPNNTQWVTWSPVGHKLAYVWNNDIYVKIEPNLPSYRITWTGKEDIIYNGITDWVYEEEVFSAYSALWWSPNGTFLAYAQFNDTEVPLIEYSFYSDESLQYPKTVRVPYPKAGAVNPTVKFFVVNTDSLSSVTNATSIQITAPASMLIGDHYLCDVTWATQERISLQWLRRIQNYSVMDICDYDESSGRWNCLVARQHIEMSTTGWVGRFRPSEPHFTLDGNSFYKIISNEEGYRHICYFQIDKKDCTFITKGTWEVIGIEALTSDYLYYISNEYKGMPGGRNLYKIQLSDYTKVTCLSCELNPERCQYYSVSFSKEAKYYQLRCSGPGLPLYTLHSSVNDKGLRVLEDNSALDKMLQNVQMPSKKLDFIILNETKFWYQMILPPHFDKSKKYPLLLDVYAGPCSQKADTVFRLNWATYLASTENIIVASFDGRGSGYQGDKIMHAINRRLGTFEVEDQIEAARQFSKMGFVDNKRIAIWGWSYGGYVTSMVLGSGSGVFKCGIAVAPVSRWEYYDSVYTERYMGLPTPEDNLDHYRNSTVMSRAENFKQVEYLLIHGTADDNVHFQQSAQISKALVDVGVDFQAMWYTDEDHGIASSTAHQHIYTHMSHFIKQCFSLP
Method: Each peptide was tested in duplicate.
Sample components were detected at 214 nanometers (nm).

Compound: GLP-2: glucagon-like peptide GLP-2 as studied by Hoosein et al (literature); species not stated
- competition with glucagon for binding [1]: neither competes
- stimulation of adenylate cyclase production (adenylate cyclase [2]): nor stimulates
- concentration stimulating adenylate cyclase (adenylate cyclase [3]): 30 to 50 pM

- peptide cleaved by DPP-IV (human placental DPP-IV; 24 hour incubation at 37° C., 0.2 mg/ml peptide in PBS pH 7.4, RP-HPLC): 22%
Compound: HADGSFSDEMNTILDNLATRDFINWLIQTKITD [compound 1, rGLP-2]

- cleavage products detected (human placental DPP-IV): No cleavage products were detected
Compound: HGDGSFSDEMNTILDNLATRDFINWLIQTKITD [compound 4, [Gly^2]rGLP-2]

- cleavage products detected (human placental DPP-IV): No cleavage products were detected
Compound: CC[C@H](C)[C@H](NC(=O)[C@H](Cc1ccccc1)NC(=O)[C@H](CC(=O)O)NC(=O)[C@H](CCCNC(=N)N)NC(=O)[C@@H](NC(=O)[C@H](C)NC(=O)[C@H](CC(C)C)NC(=O)[C@H](CC(N)=O)NC(=O)[C@H](CC(=O)O)NC(=O)[C@H](CC(C)C)NC(=O)[C@@H](NC(=O)[C@@H](NC(=O)[C@H](CC(N)=O)NC(=O)[C@H](CCSC)NC(=O)[C@H](CCC(=O)O)NC(=O)[C@H](CC(=O)O)NC(=O)[C@H](CO)NC(=O)[C@H](Cc1ccccc1)NC(=O)[C@H](CO)NC(=O)CNC(=O)[C@H](CC(=O)O)NC(=O)[C@@H](C)NC(=O)[C@@H](N)Cc1c[nH]cn1)[C@@H](C)O)[C@@H](C)CC)[C@@H](C)O)C(=O)N[C@@H](CC(N)=O)C(=O)N[C@@H](Cc1c[nH]c2ccccc12)C(=O)N[C@@H](CC(C)C)C(=O)N[C@H](C(=O)N[C@@H](CCC(N)=O)C(=O)N[C@H](C(=O)N[C@@H](CCCCN)C(=O)N[C@H](C(=O)N[C@H](C(=O)N[C@@H](CC(=O)O)C(=O)O)[C@@H](C)O)[C@@H](C)CC)[C@@H](C)O)[C@@H](C)CC [compound 3, [D-Ala^2]rGLP-2] (H-H[dA]DGSFSDEMNTILDNLATRDFINWLIQTKITD-OH)
